From patent EP0877740B1, “THIOL DERIVATIVES WITH METALLOPEPTIDASE INHIBITORY ACTIVITY” (ZAMBON GROUP S.p.A., priority 1995, dated 1997)

Tests used:
[1] = target: T1, ACE (Oryctolagus cuniculus, UniProt P12822); assay: In vitro ACE-inhibitory activity (FAPGG substrate, spectrophotometric); type: biochemical; conditions: ACE purified by lung rabbit, FAPGG 0.8 mM, 37°C
T1 construct: ACE (250 mU/ml purified by lung rabbit, EC 3.4.15.1 SIGMA); purchased SIGMA; host or cells: rabbit lung (tissue-purified)
T1 sequence (P12822 34-1310): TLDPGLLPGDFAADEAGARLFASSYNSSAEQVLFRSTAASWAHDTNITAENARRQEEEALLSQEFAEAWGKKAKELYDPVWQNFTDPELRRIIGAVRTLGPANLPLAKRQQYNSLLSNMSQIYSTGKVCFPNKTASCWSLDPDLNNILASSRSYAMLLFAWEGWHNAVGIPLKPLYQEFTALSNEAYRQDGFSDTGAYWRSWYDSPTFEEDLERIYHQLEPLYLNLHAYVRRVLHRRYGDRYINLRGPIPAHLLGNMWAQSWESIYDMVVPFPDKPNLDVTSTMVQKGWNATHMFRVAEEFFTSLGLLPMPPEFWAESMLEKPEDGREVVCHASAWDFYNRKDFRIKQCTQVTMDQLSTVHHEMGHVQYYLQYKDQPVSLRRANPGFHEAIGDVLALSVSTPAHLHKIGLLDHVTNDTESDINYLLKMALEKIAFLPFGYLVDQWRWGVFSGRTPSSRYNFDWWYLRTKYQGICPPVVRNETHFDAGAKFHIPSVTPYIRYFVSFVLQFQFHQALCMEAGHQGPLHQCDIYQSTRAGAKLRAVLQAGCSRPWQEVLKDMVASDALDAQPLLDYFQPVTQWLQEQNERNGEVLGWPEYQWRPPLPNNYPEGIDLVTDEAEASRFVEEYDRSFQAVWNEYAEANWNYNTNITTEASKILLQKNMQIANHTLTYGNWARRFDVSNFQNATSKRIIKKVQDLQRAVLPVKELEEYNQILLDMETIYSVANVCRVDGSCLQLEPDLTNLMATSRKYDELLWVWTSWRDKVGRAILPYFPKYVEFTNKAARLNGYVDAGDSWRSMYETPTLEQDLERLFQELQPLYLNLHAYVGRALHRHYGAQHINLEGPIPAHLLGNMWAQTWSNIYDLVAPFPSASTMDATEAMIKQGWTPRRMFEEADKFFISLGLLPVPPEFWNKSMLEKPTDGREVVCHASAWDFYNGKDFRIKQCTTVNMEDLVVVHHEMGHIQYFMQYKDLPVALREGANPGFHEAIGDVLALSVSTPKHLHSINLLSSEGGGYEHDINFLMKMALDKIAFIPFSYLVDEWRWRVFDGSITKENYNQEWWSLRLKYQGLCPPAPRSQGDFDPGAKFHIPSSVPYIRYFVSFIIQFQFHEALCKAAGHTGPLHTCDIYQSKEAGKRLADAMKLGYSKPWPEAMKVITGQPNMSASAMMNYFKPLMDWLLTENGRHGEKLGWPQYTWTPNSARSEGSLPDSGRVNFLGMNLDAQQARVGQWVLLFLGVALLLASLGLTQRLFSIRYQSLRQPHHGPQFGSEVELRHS
Method: […] of ACE (250 mU/ml purified by lung rabbit, EC 3.4.15.1 SIGMA) were preincubated with 50 µl of the compound of formula I or of the reference compound or related vehicle in thermostated cuvettes at 37°C.
The reaction was started by adding furylacryloylphenylalanylglycylglycine 0.8 mM (FAPGG-SIGMA).
Contemporaneously, by using a Beckman DU-50 spectrophotometer provided with a program for calculating delta A/minutes and regression coefficients of the enzyme kinetics curves, the absorbance at 340 nm was recorded in continuo for 5 minutes.
The percentage of the enzyme inhibition in the preparations treated with the compounds of formula I or with the comparative compounds with respect to the untreated preparations was expressed as IC50 (nM) value.

[2] = target: T2, NEP (Rattus norvegicus, UniProt P07861); assay: In vitro NEP-inhibitory activity in rat kidney cortex membranes ([3H][Leu5]-enkephaline hydrolysis); type: biochemical; parameters: Kidneys were removed from male Sprague-Dawley rats weighing approximately 300 g; from tissue; host or cells: rat kidney cortex membranes (male Sprague-Dawley); conditions: [3H][Leu5]-enkephaline 15 nM, 30°C
T2 sequence (P07861 1-750): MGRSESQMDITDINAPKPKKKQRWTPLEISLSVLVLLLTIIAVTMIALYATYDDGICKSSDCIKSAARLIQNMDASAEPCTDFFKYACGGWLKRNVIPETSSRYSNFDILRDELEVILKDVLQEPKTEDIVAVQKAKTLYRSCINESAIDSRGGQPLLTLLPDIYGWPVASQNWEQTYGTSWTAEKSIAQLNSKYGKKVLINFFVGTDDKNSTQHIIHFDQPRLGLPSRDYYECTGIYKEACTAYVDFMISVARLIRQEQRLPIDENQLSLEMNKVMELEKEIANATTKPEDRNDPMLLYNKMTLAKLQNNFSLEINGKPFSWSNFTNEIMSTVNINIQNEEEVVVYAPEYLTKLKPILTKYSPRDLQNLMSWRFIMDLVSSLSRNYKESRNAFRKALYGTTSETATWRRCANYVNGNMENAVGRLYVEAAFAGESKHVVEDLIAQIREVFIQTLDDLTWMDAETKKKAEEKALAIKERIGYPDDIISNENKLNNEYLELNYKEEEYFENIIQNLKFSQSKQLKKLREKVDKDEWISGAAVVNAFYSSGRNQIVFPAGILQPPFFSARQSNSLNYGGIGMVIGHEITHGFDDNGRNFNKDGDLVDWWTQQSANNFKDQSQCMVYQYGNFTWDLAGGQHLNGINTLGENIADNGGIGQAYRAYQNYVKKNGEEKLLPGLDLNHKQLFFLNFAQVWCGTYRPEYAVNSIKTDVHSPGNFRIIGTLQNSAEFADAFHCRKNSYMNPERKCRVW
Method: The NEP-inhibitory activity was evaluated in rat kidney cortex membranes prepared according to the procedure described by T. Maeda et al. in Biochim. Biophys.
Kidneys were removed from male Sprague-Dawley rats weighing approximately 300 g and kept at 4°C.
Kidney cortex was carefully dissected, finely minced and suspended in a homogenization buffer (10 mM sodium phosphate pH 7.4 containing 1 mM MgCl2, 30 mM NaCl, 0.02% NaN3) 1:15 weight/volume.
The tissue was then cold homogenized for 30 seconds using an Ultra-Turrax homogenizer.
The membranes were collected from the buffer/sucrose interface, washed twice with 50 mM TRIS/HCl buffer (pH 7.4) and resuspended into the same buffer for storage in small aliquots at -80°C until use.
The NEP-inhibitory activity was evaluated by using the method described by C.
Aliquots of the membrane suspension prepared as above described (concentration 5 µg/ml of proteins) were preincubated in the presence of an aminopeptidase inhibitor (Bestatin - 1 mM) for 10 minutes at 30°C.
Incubation (20 minutes at 30°C) was stopped by adding HCI 0.1M (100 µl).
The formation of the metabolite [^3H]Tyr-Gly-Gly was quantified by chromatography on polystyrene columns (Porapak Q).
The percentage of inhibition of the metabolite formation in the membrane preparations treated with the compounds of formula I and with the comparative compounds with respect to the untreated membrane preparations was expressed as IC50 (nM) value.

SMILES | IC50 [1] [nM] | IC50 [2] [nM] | NEP-inhibitory activity IC50 (nM) [2]
O=C(N[C@@H](Cc1ccc(-c2nccs2)cc1)C(=O)O)C(CS)Cc1cccnc1 (single isomer, unassigned) [Compound 27, N-[3-mercapto-2-(3-pyridylmethyl)propionyl]-4-(2-thiazolyl)-L-phenylalanine] | 9.1 | 17.3 | 
C[C@H](CS)C(=O)N1CCC[C@H]1C(=O)O [Captopril, reference compound] |  |  | not active
O=C(N[C@@H](Cc1ccc(-c2ccco2)cc1)C(=O)O)[C@@H](CS)Cc1ccccc1 [Compound 18, N-[(2S)-3-mercapto-2-phenylmethylpropionyl]-4-(2-furyl)-L-phenylalanine] | 1.8 | 1.8 | 
O=C(N[C@@H](Cc1ccc(-c2cncnc2)cc1)C(=O)O)[C@@H](CS)Cc1ccccc1 [Compound 19, N-[(2S)-3-mercapto-2-phenylmethylpropionyl]-4-(5-pyrimidinyl)-L-phenylalanine] | 1.9 | 1.8 | 
O=C(N[C@@H](Cc1ccc(-c2cnccn2)cc1)C(=O)O)[C@@H](CS)Cc1ccccc1 [Compound 20, N-[(2S)-3-mercapto-2-phenylmethylpropionyl]-4-(2-pyrazinyl)-L-phenylalanine] | 1.5 | 2.5 | 
O=C(N[C@@H](Cc1ccc(-c2cccnc2)cc1)C(=O)O)[C@@H](CS)Cc1ccccc1 [Compound 21, N-[(2S)-3-mercapto-2-phenylmethylpropionyl]-4-(3-pyridyl)-L-phenylalanine] | 1.7 | 2.6 | 
O=C(N[C@@H](Cc1ccc(-c2ccccn2)cc1)C(=O)O)[C@@H](CS)Cc1ccccc1 [Compound 22, N-[(2S)-3-mercapto-2-phenylmethylpropionyl]-4-(2-pyridyl)-L-phenylalanine] | 1.8 | 2 | 
O=C(N[C@@H](Cc1ccc(-c2cccs2)cc1)C(=O)O)[C@@H](CS)Cc1ccccc1 [Compound 23, N-[(2S)-3-mercapto-2-phenylmethylpropionyl]-4-(2-thienyl)-L-phenylalanine] | 1.6 | 0.6 | 
O=C(N[C@@H](Cc1ccc(-c2ccsc2)cc1)C(=O)O)[C@@H](CS)Cc1ccccc1 [Compound 24, N-[(2S)-3-mercapto-2-phenylmethylpropionyl]-4-(3-thienyl)-L-phenylalanine] | 2.5 | 1.3 | 
O=C(N[C@@H](Cc1ccc(-c2ccoc2)cc1)C(=O)O)[C@@H](CS)Cc1ccccc1 [Compound 25, N-[(2S)-3-mercapto-2-phenylmethylpropionyl]-4-(3-furyl)-L-phenylalanine] | 2.4 | 1 | 
CC(C)CC(CS)C(=O)N[C@@H](Cc1ccc(-c2nccs2)cc1)C(=O)O (stereo partly drawn) [Compound 28, N-(2-isobutyl-3-mercapto-propionyl)-4-(2-thiazolyl)-L-phenylalanine] | 5.8 | 1.8 | 
COc1cccc(CC(CS)C(=O)N[C@@H](Cc2ccc(-c3nccs3)cc2)C(=O)O)c1 (stereo partly drawn) [Compound 29, N-[3-mercapto-2-(3-methoxyphenyl)methyl-propionyl]-4-(2-thiazolyl)-L-phenylalanine] | 4.6 | 9 | 
O=C(N[C@@H](Cc1ccc(-c2nccs2)cc1)C(=O)O)C(CS)Cc1ccccc1F (stereo partly drawn) [Compound 30, N-[3-mercapto-2-(2-fluorophenyl)methyl-propionyl]-4-(2-thiazolyl)-L-phenylalanine] | 10.7 | 11.2 | 
O=C(N[C@@H](Cc1ccc(-c2nccs2)cc1)C(=O)O)C(CS)Cc1cccs1 (stereo partly drawn) [Compound 31, N-[3-mercapto-2-(2-thienyl)methyl-proionyl]-4-(2-thiazolyl)-L-phenylalanine] | 8.6 | 1.2 | 
O=C(N[C@@H](Cc1ccc(-c2nccs2)cc1)C(=O)O)C(CS)Cc1ccco1 (stereo partly drawn) [Compound 32, N-[3-mercapto-2-(2-furyl)methyl-propionyl]-4-(2-thiazolyl)-L-phenylalanine] | 8.6 | 4 | 
Cc1cc(CC(CS)C(=O)N[C@@H](Cc2ccc(-c3nccs3)cc2)C(=O)O)on1 (stereo partly drawn) [Compound 33, N-[3-mercapto-2-(3-methyl-5-isoxazolyl)methyl-propionyl]-4-(2-thiazolyl)-L-phenylalanine] | 7.9 | 4.5 | 
